In PubChem BioAssay AID504726 (Broad Institute, 2011) one finds activity change, negative = cytotoxicity data, which are given here for 55 molecules.

Active and inactive are the calls of the source.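 How the source made its calls: active means fitted half-maximal concentration for a cytotoxic signal drop no higher than ten times the top valid dose tested; inconclusive means flat curve between -70 and -30 percent, or an unreliable fit; inactive means flat within 30 percent, signal rise, or potency beyond limit.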

The nature of this assay: viability loss in HeLa cells – cell-based, 24 h, cherry-picked samples, cytotoxicity control, dose response (AID 504726).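 Further: 0% = DMSO neutral controls and -100% = mitoxantrone positive controls.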 The note with it: HeLa viability, CellTiter-Glo ATP luminescence, 24 h; at 35 µM (top of the series).
As to `CC(=O)Oc1ccc2c(c1)Oc1cc(OC(C)=O)ccc1C21OC(=O)c2ccccc21`, the activity change, negative = cytotoxicity is -1.71% (inactive).
Next, `COc1ccc(N(C(=O)c2ccc(Cl)cc2)C2=CC3CCC(C2)N3C)cc1` (stereo not given): -1.73% (inactive); `Cc1cc(/C=N/Nc2ccc([N+](=O)[O-])cn2)c(C)n1-c1cccc(C(=O)O)c1`: -4.63% (inactive); `CC(C)CCN1C(=O)c2cccc3c(N)ccc(c23)C1=O`: -14.7% (inactive).
With `NC(=O)C1(N2CCCCC2)CCN(Cc2ccc(Br)cc2)CC1`, the activity change, negative = cytotoxicity was -2.98% (inactive).
For `NC(=O)c1ccc(NC(=O)C2COc3ccccc3O2)cc1` (stereo not given), the activity change, negative = cytotoxicity was -1.55% (inactive).
In the case of `COc1ccc(Cn2nnc3c(=O)[nH]c(C4CCCN(C(=O)c5ccccc5)C4)nc32)cc1` (stereo not given) it was -5.25% (inactive); in that of `Cc1cc(C(F)(F)F)c2c(N)c(C(=O)Nc3cc(C)on3)sc2n1`, -0.48% (inactive); in that of `COc1cc(CN2CC(=O)N(c3cc(Cl)ccc3C)C2=S)cc(OC)c1OC`, -7.61% (inactive).
On to `Cc1ccc(N2CC(C(=O)Nc3nnc(SCC(=O)Nc4nc(C)cs4)s3)CC2=O)cc1` (stereo not given), for which the activity change, negative = cytotoxicity is -3.6% (inactive).
In the case of `Cc1cc(=O)c2c([nH]1)c(C)cc1[nH]c(C)c(C)c12` it was -3.16% (inactive); in that of `CCOC(=O)c1c(/N=C/c2c(O)n(-c3cccc(C)c3)c(=O)[nH]c2=O)sc2c1CCCC2`, -22.9% (inactive); in that of `Cc1oc2cc(O)ccc2c(=O)c1-c1nncn1-c1ccccc1`, 3.87% (inactive).
In the case of `COc1cc(-c2ccc(Nc3ccccc3C(=O)O)c(OC)c2)ccc1Nc1ccccc1C(=O)O` it was -14.8% (inactive).
As to `COc1cccc(-c2cc(C(=O)N3CCN(S(=O)(=O)c4ccccc4)CC3)[nH]n2)c1`, the activity change, negative = cytotoxicity is -17.3% (inactive).
As to `Cc1cccnc1NC1(C(F)(F)F)N=C2SCCN2C1=O` (stereo not given), the activity change, negative = cytotoxicity was -2.93% (inactive).
In the case of `CC(=O)Nc1ccc(S(=O)(=O)Nc2nc3ccccc3nc2Nc2ccc(C(=O)O)c(O)c2)cc1` it was -13.1% (inactive); in that of `COc1ccc(NS(=O)(=O)c2ccc(C)c(C(=O)N(C)Cc3ccc(OC)cc3OC)c2)cc1`, -7.58% (inactive).
Next, `CC(C)Cc1nc(SCC(=O)Nc2nnc(CC(C)C)s2)n[nH]1`: -15% (inactive); `O=C(O)CC(C(=O)O)N1C(=O)/C(=C/C=C/c2ccco2)SC1=S` (stereo not given): -8.39% (inactive).
On to `Cc1cc(/C=C2\C(=O)NC(=O)N(Cc3ccccc3)C2=O)c(C)n1-c1ccc(Cl)c(C(=O)O)c1`, for which the activity change, negative = cytotoxicity is 1.64% (inactive).
In the case of `COc1ccc(/C=N/NC(=O)c2ccc3nc[nH]c3c2)c(OC)c1` it was 3.07% (inactive); in that of `CN(C)CCCNC(=O)c1ccccc1Oc1ccccc1`, -6.34% (inactive).
In the case of `O=C(NC12CC3CC(CC(C3)C1)C2)N1CCN(c2ncccn2)CC1` it was 12.9% (inactive); in that of `O=[N+]([O-])c1cccc(CSc2nc3ccccc3[nH]2)c1`, -8.29% (inactive).
Next, `O=C(O)Cc1c[nH]c2cccc(O)c12`: -14.7% (inactive); `CC(C)N(Cc1ccccc1)C(=O)Cn1c(=O)cnc2ccccc21`: 0.817% (inactive).
On to `CCN(CC)C(=O)c1ccc2c(c1)C1C=CCC1C(C(=O)O)N2` (stereo not given), for which the activity change, negative = cytotoxicity was -7.76% (inactive).
In the case of `COc1cc(C(=S)N2CCN(c3cccc(Cl)c3)CC2)ccc1O`, the activity change, negative = cytotoxicity was 9.69% (inactive).
In the case of `CC(C)CC(=O)Nc1nnc(CSCc2ccc(F)cc2)s1` it was -9.25% (inactive); in that of `O=C(CN1C(=O)/C(=C/c2ccco2)SC1=S)Nc1ccc(C(=O)O)c(O)c1`, -0.625% (inactive); in that of `CCCC1(C2CCCC2)NC(=O)NC1=O` (stereo not given), 0.78% (inactive).
In the case of `COc1ccc(C(=O)OCC(=O)NC2CC2)cc1S(=O)(=O)Nc1ccc(C)cc1` it was 3.27% (inactive).
Regarding `CCOC(=O)C1Nc2ccccc2C2C(O)C(O)CC12` (stereo not given), the activity change, negative = cytotoxicity was 7.37% (inactive).
In the case of `C/C(=N\NC(=O)CCc1c(C)n[nH]c1C)c1ccc([N+](=O)[O-])cc1` it was 6.48% (inactive); in that of `O=S(=O)(NCc1cccnc1)c1ccc(Cl)s1`, 4.67% (inactive); in that of `COc1cc2c(cc1OC)-c1cc3ccc4c(c3c[n+]1CC2)OCO4`, -12.1% (inactive).
Take `O=c1cc(-c2ccc(O)c(O)c2)oc2cc(O[C@@H]3O[C@H](CO)[C@@H](O)[C@H](O)[C@H]3O)cc(O)c12`: the activity change, negative = cytotoxicity was -8.55% (inactive).
In the case of `Cc1cc(OCC(=O)OC(C)(C)C)c2c3c(c(=O)oc2c1)CCC3` it was 0.477% (inactive).
Next, `COc1ccc(CNC(=O)C2CCC(CNC(=O)[C@@H]3Cc4ccccc4CN3)CC2)cc1` (stereo not given in full): -2.6% (inactive); `COc1cccc(C2CC(=O)Nc3cc4c(cc32)CCC4)c1` (stereo not given): 14.6% (inactive); `COc1ccc(OC)c(N2C(=O)NC(=O)/C(=C\c3ccc([N+](=O)[O-])s3)C2=O)c1`: -3.62% (inactive).
As to `COCCN(CCOC)Cc1c(O)ccc2c1O/C(=C\c1ccco1)C2=O`, the activity change, negative = cytotoxicity is -13.7% (inactive).
For `CCN(CC(=O)Nc1ccc(OC)cc1)C(=O)c1cc([N+](=O)[O-])ccc1N1CCOCC1`, the activity change, negative = cytotoxicity was -3.5% (inactive).
Next, `Cc1ccc(C(=O)c2coc3ccc(O)c(Cl)c23)cc1`: -2.67% (inactive); `CCNc1nc(NC(C)C)nc(NS(=O)(=O)c2ccc(N)cc2)n1`: -6.72% (inactive).
Take `O=C(O)c1ccc2c(c1)C(=O)/C(=C\c1ccco1)C2=O`: the activity change, negative = cytotoxicity was 3.44% (inactive).
In the case of `Cn1cc(/C=C2\C(=O)NC(=O)N(c3ccccc3)C2=O)c2ccccc21` it was -26.5% (inactive); in that of `COC(=O)c1ccccc1NC(=O)CCS(=O)(=O)c1ccc(Br)cc1`, 10.1% (inactive).
Regarding `COc1ccc(NC(=O)COC(=O)c2c(-c3ccccc3)noc2C)cc1`, the activity change, negative = cytotoxicity was 6.45% (inactive).
Next, `O=C(O)c1ccc(NS(=O)(=O)c2ccc3c(c2)C2C=CCC2C(c2ccccc2F)N3)cc1` (stereo not given): -8.24% (inactive).
Next, `O=c1[nH][nH]cc1C=Nc1ccc(Cl)cc1Cl`: -7.34% (inactive); `Nc1c(-c2ccccn2)cnn1-c1nc(-c2ccc(F)cc2)cs1`: -5.27% (inactive).
Next, `Nc1nc(-c2ccc(C(=O)O)cc2)cs1`: -2% (inactive); `CSc1ccc(/C=N/Nc2cccc(C(=O)O)c2)cc1`: -13% (inactive).
